Assay results from patent US5853742A, “Cosmetic compositions containing lactate dehydrogenase inhibitors” (priority 1997, dated 1998).
Values joined by “and” are separate entries in the source; they are usually repeats but may differ in a detail not shown here. Equal entries are not always repeated. Where two headings read alike, the source gives them in different places. Each block holds one compound with its values, some of them ahead of it.

Key:
[1] = tested on: Neonatal human dermal fibroblasts; assay: Collagen synthesis (secreted procollagen 1 immunoassay); format: cell-based; conditions: 0.2 to 20 mM, 48 hours, serum-free medium
Description: Neonatal human dermal fibroblasts were purchased from Clonetics Corp., San Diego, Calif. All materials for cell culture were purchased from Life Technologies, N.Y. Cells were maintained in DMEM with 10% fetal bovine serum and used in passages 5-10, Confluent 96-well plates containing fibroblasts were treated with test materials (0.2 to 20 mM) in serum-free medium for 48 hours. […] This was carried out in a BioDot SF apparatus according to the manufacturer's instructions (BioRad Labs, CA) and the blot was developed using a Vectastain Kit (PK6104, Vector Labs, CA) as per the manufacturer's directions. Color intensity was quantitated using an Ultroscan XL densitometer (Pharmacia LKB). Fold increase was calculated as (density of treated)/untreated.

[2] = tested on: Normal human epidermal keratinocytes (NHEK); assay: Keratinocyte proliferation (DNA content, fluorometric); format: cell-based
Description: Normal human epidermal keratinocytes (NHEK) derived from neonatal foreskin were used for all experiments. Media were purchased from Clonetics Corp., San Diego, Calif. Cell stocks frozen in passage 2 were grown in Keratinocyte Growth Medium (KGM) and passaged when 70-80% confluent. Cells were seeded in 96 well plates (Corning) at a density of 7500 cells/well in KGM. After 24 hours, cells were rinsed and dosed with test compounds in 200 μl of Keratinocyte Basal Medium (KBM). Plates were incubated for three days at 37° C., 5% CO2. Cell proliferation was estimated by assaying for DNA content by a fluorometric method described by Rago et al. (Analytical Biochemistry, 191:31-34, 1990). Medium was removed and cells were rinsed with phosphate buffered saline solution. 100 μl of sterile distilled water was added to each well and plates were frozen at -70° C. for one and a half hours. Plates were thawed for one hour at which time 100 μl of a 20 ug/ml solution of Bisbenzimide H33258 fluorochrome (Calbiochem Corp., La Jolla, Calif.) was added to each well. The fluorochrome was prepared just prior to use in 10 mM Tris, 1 mM EDTA, 4M NaCl, pH 7.4. Plates were read in a Millipore Cytofluor fluorescent plate reader to quantify DNA (excitation 360 nm, emission 460 nm). Percent increase over control was calculated from blank-corrected readings as (treated-untreated)/(untreated)*100%.

[3] = tested on: Fibroblast Lactate Dehydrogenase; assay: Lactate dehydrogenase (LDH) inhibition, fibroblast lysate; format: biochemical, human
Description: All reagents were purchased from Sigma Chemical Co., St. Louis, Mo, USA. Sigma procedure No. 500 was modified for our purposes. One mL of pyruvate substrate (Sigma […]-1, pH=7.5) was added to a vial containing 1 mg NADH (Sigma 340-101). In a 96-well plate, the following components were added to each test well: 10 μl pyruvate/NADH mixture, and 10 μl cell lysate. For preparation of cell lysates, neonatal human keratinocytes or fibroblasts (Clonetic Corp., San Diego, Calif.) were cultured in tissue culture plates (Corning, USA). Cells were scraped in PBS (pH=7.4) and this solution was used as a source of L-lactate dehydrogenase. If such cell lysate was not available, a commercial preparation of L-lactic dehydrogenase (E.C.1.1.1.27), Sigma L9889, from porcine heart could be used in place of the cell lysate. For positive control, the inhibitor was replaced with 10 μl of PBS. For blank determination, the lysate or enzyme was replaced with […]. After mixing, the plate was incubated for 30 minutes at 37° C. Then 20 μl of color reagent (Sigma 505-2) was added to each well. After 20 minutes at room temperature, 150 μI of 0.4N NaOH was added, and the plate was read for absorbance at 490 nm in a Dynatech MR 7000 Microplate Reader. To calculate % inhibition, the control activity (CA) was first determined by subtracting the absorbance of the positive control from the blank, Then the activity in the presence of the inhibitor (IA) was calculated by subtracting the appropriate absorbance from the blank. %/, Inhibition was then calculated as: ((CA-IA)/CA)* 100%/.

Maximum fold over Control (collagen synthesis) [1]: 2.0 fold
Compound: CC(=O)O [Acetate]

Compound: O=C(O)CC(O)(CC(=O)O)C(=O)O [Citrate]
activation at 10 µM ([2]; Homo sapiens, NHEK, 72 h, read-out: % Increase Over Control (keratinocyte proliferation), Table 6, citrate 0.01 mM): 25%
activation at 100 µM ([2]; Homo sapiens, NHEK, 72 h, read-out: % Increase Over Control (keratinocyte proliferation), Table 6, citrate 0.1 mM): 40%
activation at 150 µM ([2]; Homo sapiens, NHEK, 72 h, read-out: % Increase Over Control (keratinocyte proliferation), Table 6, citrate 0.15 mM): 18%
activation at 300 µM ([2]; Homo sapiens, NHEK, 72 h, read-out: % Increase Over Control (keratinocyte proliferation), Table 6, citrate 0.3 mM): 39%
activation at 600 µM ([2]; Homo sapiens, NHEK, 72 h, read-out: % Increase Over Control (keratinocyte proliferation), Table 6, citrate 0.6 mM): 35%
activation at 1000 µM ([2]; Homo sapiens, NHEK, 72 h, read-out: % Increase Over Control (keratinocyte proliferation), Table 6, citrate 1.0 mM): 20%
activation at 1250 µM ([2]; Homo sapiens, NHEK, 72 h, read-out: % Increase Over Control (keratinocyte proliferation), Table 6, citrate 1.25 mM): 18%
activation at 2500 µM ([2]; Homo sapiens, NHEK, 72 h, read-out: % Increase Over Control (keratinocyte proliferation), Table 6, citrate 2.5 mM): 0%
activation at 5000 µM ([2]; Homo sapiens, NHEK, 72 h, read-out: % Increase Over Control (keratinocyte proliferation), Table 6, citrate 5.0 mM): 0%
activation at 10000 µM ([2]; Homo sapiens, NHEK, 72 h, read-out: % Increase Over Control (keratinocyte proliferation), Table 6, citrate 10 mM): 0%
activation at 2 µM ([2]; Homo sapiens, NHEK, 72 h, read-out: % Increase Over Control (keratinocyte proliferation), Table 7, 0.002 mM): 22%
activation at 20 µM ([2]; Homo sapiens, NHEK, 72 h, read-out: % Increase Over Control (keratinocyte proliferation), Table 7, 0.02 mM): 31%
activation at 20000 µM ([2]; Homo sapiens, NHEK, 72 h, read-out: % Increase Over Control (keratinocyte proliferation), Table 7, 20 mM): 0%

% Inhibition ([3]; 0.625 mM): 0%
% Inhibition ([3]; 1.25 mM): 0%
% Inhibition ([3]; 2.5 mM): 0%
% Inhibition ([3]; 5 mM): 0%
Compound: C[C@@H](O)C(=O)O [D-lactate]

Compound: N[C@@H](CCC(=O)O)C(=O)O [Glutamate]
Maximum fold over Control (collagen synthesis) [1]: 3.6 fold

Compound: NCC(=O)O [Glycinate]
% Inhibition ([3]; 0.625 mM): 0%
% Inhibition ([3]; 1.25 mM): 0%
% Inhibition ([3]; 2.5 mM): 0%
% Inhibition ([3]; 5 mM): 0%

% Inhibition ([3]; 0.625 mM): 0%
% Inhibition ([3]; 1.25 mM): 0%
% Inhibition ([3]; 2.5 mM): 0%
% Inhibition ([3]; 5 mM): 0%
Compound: O=C(O)CO [Glycolate]

Compound: O=C(O)CC(C(=O)O)C(O)C(=O)O (stereo not shown) [Isocitrate]
activation at 0.2 µM ([2]; Homo sapiens, NHEK, 72 h, read-out: % Increase Over Control (keratinocyte proliferation), Table 8, isocitrate 0.0002 mM): 0%
activation at 2 µM ([2]; Homo sapiens, NHEK, 72 h, read-out: % Increase Over Control (keratinocyte proliferation), Table 8, isocitrate 0.002 mM): 39%
activation at 156 µM ([2]; Homo sapiens, NHEK, 72 h, read-out: % Increase Over Control (keratinocyte proliferation), Table 8, isocitrate 0.156 mM): 32%
activation at 313 µM ([2]; Homo sapiens, NHEK, 72 h, read-out: % Increase Over Control (keratinocyte proliferation), Table 8, isocitrate 0.313 mM): 40%
activation at 625 µM ([2]; Homo sapiens, NHEK, 72 h, read-out: % Increase Over Control (keratinocyte proliferation), Table 8, isocitrate 0.625 mM): 32%
activation at 1250 µM ([2]; Homo sapiens, NHEK, 72 h, read-out: % Increase Over Control (keratinocyte proliferation), Table 8, isocitrate 1.25 mM): 40%
activation at 2000 µM ([2]; Homo sapiens, NHEK, 72 h, read-out: % Increase Over Control (keratinocyte proliferation), Table 8, isocitrate 2.0 mM): 40%
activation at 2500 µM ([2]; Homo sapiens, NHEK, 72 h, read-out: % Increase Over Control (keratinocyte proliferation), Table 8, isocitrate 2.5 mM): 32%
activation at 5000 µM ([2]; Homo sapiens, NHEK, 72 h, read-out: % Increase Over Control (keratinocyte proliferation), Table 8, isocitrate 5.0 mM): 18%
activation at 10000 µM ([2]; Homo sapiens, NHEK, 72 h, read-out: % Increase Over Control (keratinocyte proliferation), Table 8, isocitrate 10 mM): 0%
% Increase Over Control (keratinocyte proliferation) ([2]; Table 8, isocitrate 0.002 mM): 20%
% Increase Over Control (keratinocyte proliferation) ([2]; Table 8, isocitrate 2.0 mM): 30%

Compound: O=C(O)CCC(=O)C(=O)O [Ketoglutarate]
Maximum fold over Control (collagen synthesis) [1]: 2.2 fold

Compound: O=C(O)C[C@H](O)C(=O)O [L-Malate]
activation at 2 µM ([2]; Homo sapiens, NHEK, 72 h, read-out: % Increase Over Control (keratinocyte proliferation), Table 5, L-malate 0.002 mM): 34%
activation at 20 µM ([2]; Homo sapiens, NHEK, 72 h, read-out: % Increase Over Control (keratinocyte proliferation), Table 5, L-malate 0.02 mM): 27%
activation at 200 µM ([2]; Homo sapiens, NHEK, 72 h, read-out: % Increase Over Control (keratinocyte proliferation), Table 5, L-malate 0.2 mM): 36%
% Increase Over Control (keratinocyte proliferation) ([2]; Table 5, L-malate 0.2 mM): 19% and 29%
% Increase Over Control ([2]; Table 12, oxamate 0, malate 0.156 mM): 33%
% Increase Over Control ([2]; Table 12, oxamate 0, malate 0.313 mM): 29%
% Increase Over Control ([2]; Table 12, oxamate 0, malate 0.625 mM): 36%
% Increase Over Control ([2]; Table 12, oxamate 0, malate 1.25 mM): 25%
% Increase Over Control ([2]; Table 12, oxamate 0, malate 2.5 mM): 39%
% Increase Over Control ([2]; Table 12, oxamate 0, malate 5.0 mM): 20%
% Inhibition ([3]; 0.625 mM): 0%
% Inhibition ([3]; 1.25 mM): 0%
% Inhibition ([3]; 2.5 mM): 0%
% Inhibition ([3]; 5 mM): 0%

% Inhibition ([3]; 0.625 mM): 0%
% Inhibition ([3]; 1.25 mM): 0%
% Inhibition ([3]; 2.5 mM): 0%
% Inhibition ([3]; 5 mM): 0%
Compound: C[C@H](O)C(=O)O [L-lactate]

% Inhibition ([3]; 0.625 mM): 0%
% Inhibition ([3]; 1.25 mM): 0%
% Inhibition ([3]; 2.5 mM): 0%
% Inhibition ([3]; 5 mM): 0%
Compound: O=C(O)CC(=O)O [Malonate]

Compound: O=C(O)CC(=O)C(=O)O [Oxaloacetate]
activation at 2 µM ([2]; Homo sapiens, NHEK, 72 h, read-out: % Increase Over Control (keratinocyte proliferation), Table 9, oxaloacetate 0.002 mM): 11%
activation at 20 µM ([2]; Homo sapiens, NHEK, 72 h, read-out: % Increase Over Control (keratinocyte proliferation), Table 9, oxaloacetate 0.02 mM): 15%
activation at 80 µM ([2]; Homo sapiens, NHEK, 72 h, read-out: % Increase Over Control (keratinocyte proliferation), Table 9, oxaloacetate 0.08 mM): 56%
activation at 200 µM ([2]; Homo sapiens, NHEK, 72 h, read-out: % Increase Over Control (keratinocyte proliferation), Table 9, oxaloacetate 0.2 mM): 22%
activation at 2500 µM ([2]; Homo sapiens, NHEK, 72 h, read-out: % Increase Over Control (keratinocyte proliferation), Table 9, oxaloacetate 2.5 mM): 40%
activation at 5000 µM ([2]; Homo sapiens, NHEK, 72 h, read-out: % Increase Over Control (keratinocyte proliferation), Table 9, oxaloacetate 5.0 mM): 35%
activation at 20000 µM ([2]; Homo sapiens, NHEK, 72 h, read-out: % Increase Over Control (keratinocyte proliferation), Table 9, oxaloacetate 20 mM): 44%
% Increase Over Control (keratinocyte proliferation) ([2]; Table 9, oxaloacetate 0.02 mM): 30%
% Increase Over Control (keratinocyte proliferation) ([2]; Table 9, oxaloacetate 0.2 mM): 20%
% Increase Over Control (keratinocyte proliferation) ([2]; Table 9, oxaloacetate 2.5 mM): 37%
% Increase Over Control (keratinocyte proliferation) ([2]; Table 9, oxaloacetate 5.0 mM): 52%
Maximum fold over Control (collagen synthesis) [1]: 3.0 fold

% Inhibition ([3]; 0.625 mM): 0%
% Inhibition ([3]; 1.25 mM): 0%
% Inhibition ([3]; 2.5 mM): 0%
% Inhibition ([3]; 5 mM): 0%
Compound: c1cn[nH]c1 [Pyrazole]

Compound: CC(=O)C(=O)O [Pyruvate]
% Increase Over Control ([2]; Table 11, oxamate 0, pyruvate 0.156 mM): 2%
% Increase Over Control ([2]; Table 11, oxamate 0, pyruvate 0.313 mM): 0%
% Increase Over Control ([2]; Table 11, oxamate 0, pyruvate 0.625 mM): 3%
% Increase Over Control ([2]; Table 11, oxamate 0, pyruvate 1.25 mM): 0%
% Increase Over Control ([2]; Table 11, oxamate 0, pyruvate 2.5 mM): 7%
% Increase Over Control ([2]; Table 11, oxamate 0, pyruvate 5.0 mM): 0%

Maximum fold over Control (collagen synthesis) [1]: 2.8 fold
Compound: O=C(O)CCC(=O)O [Succinate]

Compound: CC(S)C(=O)O (stereo not shown) [Thio-Lactate, Thiolactate]
activation at 313 µM ([2]; Homo sapiens, NHEK, 72 h, Table 4, 0.313 mM, read-out: % increase over control (keratinocyte proliferation)): 9%
activation at 625 µM ([2]; Homo sapiens, NHEK, 72 h, Table 4, 0.625 mM, read-out: % increase over control (keratinocyte proliferation)): 29%
activation at 1250 µM ([2]; Homo sapiens, NHEK, 72 h, Table 4, 1.25 mM, read-out: % increase over control (keratinocyte proliferation)): 27%
activation at 2500 µM ([2]; Homo sapiens, NHEK, 72 h, Table 4, 2.5 mM, read-out: % increase over control (keratinocyte proliferation)): 5%
activation at 5000 µM ([2]; Homo sapiens, NHEK, 72 h, Table 4, 5 mM, read-out: % increase over control (keratinocyte proliferation)): 0%

% Inhibition ([3]; 0.625 mM): 0%
% Inhibition ([3]; 1.25 mM): 0%
% Inhibition ([3]; 2.5 mM): 0%
% Inhibition ([3]; 5 mM): 0%
Compound: Methyl pyrazole
